From BindingDB's records for patent US20230340011 (Asteroid Therapeutics, 2023) come the findings set out here.

The term IC50 denotes the concentration needed to halve the response being measured. A low value points to greater potency.

In assay [1] the target is T1, Sterol regulatory element-binding protein 2 (Homo sapiens, UniProt Q12772).
T1 sequence (Q12772 whole entry): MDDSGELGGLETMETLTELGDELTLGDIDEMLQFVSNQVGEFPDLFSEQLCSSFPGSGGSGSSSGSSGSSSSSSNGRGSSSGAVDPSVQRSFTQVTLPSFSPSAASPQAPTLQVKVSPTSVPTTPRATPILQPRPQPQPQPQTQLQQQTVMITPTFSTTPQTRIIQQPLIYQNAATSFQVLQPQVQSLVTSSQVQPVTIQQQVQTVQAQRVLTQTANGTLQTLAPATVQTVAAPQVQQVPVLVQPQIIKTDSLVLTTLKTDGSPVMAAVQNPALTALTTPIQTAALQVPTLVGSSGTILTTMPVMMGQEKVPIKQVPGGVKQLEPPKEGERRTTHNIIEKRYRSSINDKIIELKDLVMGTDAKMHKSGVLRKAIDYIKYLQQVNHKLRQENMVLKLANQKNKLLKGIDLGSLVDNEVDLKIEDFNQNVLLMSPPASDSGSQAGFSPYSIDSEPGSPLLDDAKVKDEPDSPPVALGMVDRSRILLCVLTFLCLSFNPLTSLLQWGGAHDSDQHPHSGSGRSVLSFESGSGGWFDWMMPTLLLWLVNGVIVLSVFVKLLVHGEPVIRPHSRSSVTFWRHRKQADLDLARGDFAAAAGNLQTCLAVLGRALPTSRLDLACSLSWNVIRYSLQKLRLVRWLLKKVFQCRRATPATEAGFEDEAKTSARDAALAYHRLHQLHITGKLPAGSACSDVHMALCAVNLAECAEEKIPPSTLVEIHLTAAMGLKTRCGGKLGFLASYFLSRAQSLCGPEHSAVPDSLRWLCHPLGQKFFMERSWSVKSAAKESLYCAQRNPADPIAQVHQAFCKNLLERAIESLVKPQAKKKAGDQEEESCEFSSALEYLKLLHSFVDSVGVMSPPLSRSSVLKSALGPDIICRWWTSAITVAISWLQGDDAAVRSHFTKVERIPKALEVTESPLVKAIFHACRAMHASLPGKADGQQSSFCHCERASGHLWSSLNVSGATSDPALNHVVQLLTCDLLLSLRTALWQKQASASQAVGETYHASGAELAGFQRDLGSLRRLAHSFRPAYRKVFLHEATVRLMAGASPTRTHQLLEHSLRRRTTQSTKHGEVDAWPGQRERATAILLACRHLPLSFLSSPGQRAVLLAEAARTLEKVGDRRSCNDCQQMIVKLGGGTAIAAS
The assay is described as follows: In Vitro Assay-SREBP-2. How it is done: 10,000 cells/well of the PathHunter U2OS SREBP-2 Nuclear Translocation Cell Line are plated in quadruplicate on 384 well plates in 20 μL of AssayComplete cell plating 5 reagent (CP5-high serum) overnight at 37° C./5% CO2. A dilution series of test compound is added to cells, incubated for 1 hour at 37° C./5% CO2, and U18666A (a known SREBP agonist) is added to a final concentration of 10 μM. The plate is incubated overnight (16 hours) at 37° C./5% CO2. PathHunter Flash detection mix is added to the wells, incubated one hour in the dark, and the plate read on an Envision luminometer.

Assay [2] concerns the target T2, Oxysterols receptor LXR-beta (Homo sapiens, UniProt P55055).
T2 sequence (P55055 whole entry): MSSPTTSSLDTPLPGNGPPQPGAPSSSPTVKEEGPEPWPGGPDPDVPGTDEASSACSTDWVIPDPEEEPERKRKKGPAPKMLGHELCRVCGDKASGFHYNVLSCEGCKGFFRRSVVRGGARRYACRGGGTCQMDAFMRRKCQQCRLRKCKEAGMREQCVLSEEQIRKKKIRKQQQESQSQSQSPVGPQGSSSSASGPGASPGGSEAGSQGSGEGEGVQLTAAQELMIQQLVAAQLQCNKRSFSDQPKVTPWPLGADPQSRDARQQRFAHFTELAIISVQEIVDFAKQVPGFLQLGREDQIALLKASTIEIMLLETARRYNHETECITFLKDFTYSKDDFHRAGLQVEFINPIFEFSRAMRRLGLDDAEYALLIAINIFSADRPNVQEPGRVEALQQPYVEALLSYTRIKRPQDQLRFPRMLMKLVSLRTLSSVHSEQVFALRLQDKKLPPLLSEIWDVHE
The assay is described as follows: In Vitro Assay-LXRβ.
Protocol: PathHunter NHR CHO cells stably transfected with tagged full-length human LXRβ and a nuclear fusion protein containing Steroid Receptor Co-activator Peptide (SRCP). The full-length human LXRβ was tagged with the ProLink component of the DiscoverX Enzyme Fragment Complementation (EFC) system and the SRCP domain is fused to the enzyme acceptor component (EA) expressed in the nucleus. Cells were seeded in a total volume of 20 μL into white walled, 384-well microplates and incubated at 37 C. overnight prior to testing. Assay media contained charcoal-dextran filtered serum to reduce the level of hormones present. Final assay vehicle concentration was 1%. […] Microplates were read following signal generation with a PerkinElmer Envision instrument for chemiluminescent signal detection.

Molecules are shown by their SMILES.

With `C[C@H](CCC(=O)N1CCN(C(=O)c2ccnnc2)CC1)[C@H]1CC[C@H]2[C@@H]3CC=C4C[C@@H](O)CC[C@]4(C)[C@H]3CC[C@]12C` [US20230340011, Example 389.], the IC50 in assay [1] was not above 250 nM.

Consider `Cc1cccc(/C=C/[C@@H](C)[C@H]2CC[C@H]3[C@@H]4CC=C5C[C@@H](O)CC[C@]5(C)[C@H]4CC[C@]23C)n1` [US20230340011, Example 132.], for which the IC50 result in assay [2] was “in the range around 5500 nM”.

As for `COC(=O)N1CCN(C(=O)CCC[C@H]2CC[C@H]3[C@@H]4CC=C5C[C@@H](O)CC[C@]5(C)[C@H]4CC[C@]23C)CC1` [US20230340011, Example 421.], in assay [1], the IC50 is not above 250 nM.

Regarding `CCOC(=O)N1CCN(C(=O)CC[C@@H](C)[C@H]2CC[C@H]3[C@@H]4CC=C5C[C@@H](O)CC[C@]5(C)[C@H]4CC[C@]23C)CC1` [US20230340011, Example 422.], the IC50 in assay [1] was not above 250 nM.
